Measured values from a melting point compilation (Tetko et al.).

melting point [°C] | SMILES
187 | Cc1cc(C)c(P(c2c(C)cc(C)cc2C)c2c(C)cc(C)cc2C)c(C)c1
65 | CC(=O)c1c(O)ccc2ccccc12
126 | Cn1nc(C(=O)Cl)c2ccccc21
139 | Nc1ccc(N=Nc2ccccc2)c(N)n1
6.5 | CCCCCCCCCCCCC(=O)OC
235 to 253 | NC(=O)C1C2C=CC(C2)C1N (stereo not drawn)
131 to 133 | NS(=O)(=O)c1cc(Cl)sc1Cl
88 to 90 | CCOC(=O)C(=O)C(C#N)C(=O)OCC (stereo not drawn)
82.5 | CCCc1ccc(O)cc1O
105 | CCOC(=O)C1=C2c3ncccc3ON2C(Cl)C(Cl)C1Cl (stereo not drawn)
280 | COc1ccc(/C=C(/C#N)c2nc3ccccc3c(=O)[nH]2)cc1
176 | O=C(C1=NOC2C(=O)N(c3ccccc3[N+](=O)[O-])C(=O)C12)c1ccc2ccccc2c1 (stereo not drawn)
77 to 78 | Cn1nc(-c2cccs2)cc1CN
123 | COCc1ccc(O)c([N+](=O)[O-])c1
100 | CC1=CCC2C(C)(C)CCCC2(C)C12CCC(C)(CC(=O)O)O2 (stereo not drawn)
-60 | C=CC(=O)OCCN(CC)CC
104 | O=C(OCC(=O)N1CCOCC1)c1ccccc1
208 | Cc1ccc(C(=O)O)cc1Br
250 to 252 | CC(=O)OC1CC2C(C)C(=O)C3(C(OC(C)=O)CC4C(C)(C)CCC(OC(C)=O)C4(C=O)C13)C2OC(C)=O (stereo not drawn)
58 | O=C1OC(OC(=O)C(F)(F)F)c2ccccc21 (stereo not drawn)
128 to 130 | Cc1cc(C)c(-c2cc(C)[nH]n2)c(C)c1
172 | Cc1ccc(-c2csc(/C(C#N)=N\Nc3ccc(Cl)cc3)n2)cc1
-26.3 | N#CCCOCCC#N

melting point [°C] | SMILES
113 | O=C(O)c1ccccc1Oc1ccccc1
143 to 146 | CSc1ncccc1C(=O)NC(CC(C)C)C(=O)O (stereo not drawn)
187 | O=[N+]([O-])c1cccc2cn[nH]c12
103 to 105 | ON=C1CCCc2ccccc21
200 | CC(=O)c1nn2c(C(F)(F)F)nnc2s1
245 to 248 | CC(=O)Nc1ccc(N=Nc2ccc(N=Nc3ccc(/N=N/c4ccc(NC(C)=O)cc4)cc3)cc2)cc1
0 | BrC(Br)C(Br)Br
40 to 42 | COc1ccc(S(=O)(=O)Cl)cc1
64 to 67 | O=C(CCCC(=O)c1ccccc1)c1ccccc1
79 to 80 | OCc1ccc2ncccc2c1
261 | Cn1c(=O)c(C2=NNC(=O)C2=Cc2cccc([N+](=O)[O-])c2)c(O)c2ccccc21
282 to 284 | O=C(Nc1nnc(-c2ccc(Cl)cc2)o1)c1ccc(F)cc1
156 to 159 | CC(C)(C)OC(=O)NC1(C(=O)O)CCc2ccccc21 (racemic)
267 | C/C(=N\N=C1C(=O)Nc2ccccc21)c1c(O)c2ccccc2n(-c2ccccc2)c1=O
193 to 195 | O=C(O)C(O)C(O)C(=O)Nc1ccc(Cl)cc1 (single isomer, unassigned; (+))
108 to 109 | Cc1nccc(-c2cccc(N)c2)n1
136 to 138 | O=Cc1cc([N+](=O)[O-])ccc1N1CCCC1
83 to 85 | N#CCOc1ccc(C2=NCCS2)cc1
101 to 109 | C=CC1(OC(C)=O)CCC2(C)C(CCC3C2CCC2(C)C3CCC23OCCO3)C1 (stereo not drawn)
110 | COc1cc2c(cc1OC)C(CCc1ccc(Cl)cc1)N(C)CC2 (stereo not drawn)
20 | O=C1CCCN1CCO
66 to 68 | O=S(=O)(Cl)c1ccc2c(c1)OCCO2
134 to 137 | CC(C)(C)OC(=O)NCCCC[C@H](NC(=O)OCC1c2ccccc2-c2ccccc21)C(=O)O

melting point [°C] | SMILES
62 to 64 | Clc1cc(-c2ccccc2)nc2ccccc12
127 to 133 | COc1ccc(C2CNC(=O)C2)cc1OC1CCCC1 (stereo not drawn)
189 | NC(=O)C12CC3CC(CC(C3)C1)C2
229 | O=C(Nc1ccc(Br)cc1)c1c(O)cccc1O
-113 | CCCCCC(C)(C)C
148 to 150 | Cc1ccc(Cl)c(C(=O)O)c1
168 to 170 | CCOC(=O)Nc1nc(N)c(C(N)=O)s1
64 to 66 | CCOC(=O)Nc1ccc(Cl)cc1
121 to 124 | CCOC=C(C#N)S(=O)(=O)c1ccc(Cl)cc1
208 | CC(C=CC=C(C)C=CC12OC1(C)CC(O)CC2(C)C)=CC=CC=C(C)C=CC=C(C)C=CC12OC1(C)CC(O)CC2(C)C (stereo not drawn)
96 to 98 | COc1ccccc1-c1ccc(C=CC(=O)c2ccco2)o1
169 | CCN1CCN(C(=O)NC(C(=O)NC2C(=O)N3C(C(=O)O)=C(CSc4nnnn4C)CSC23)c2ccc(O)cc2)C(=O)C1=O (stereo not drawn)
178 | CC1=C(C(=O)OCC(C)C)C(c2ccc3c(c2)OCO3)NC(=O)N1 (stereo not drawn)
214 | CC(C)C1=C(O)C(=O)C2=C(C1=O)C(O)CC1C(C)(C)CCCC21C (stereo not drawn)
198 to 201 | ON=Cc1cc(Br)c(O)c(Br)c1
102 | COc1ccc(C#N)c(Cl)c1OC
93 to 95 | COc1ccc(CC(=O)O)cc1C
152 | NN=C1c2ccccc2-c2ccccc21
122 to 124 | Cc1nc2ccc(N)cc2s1
139 | O=C(O)C=Cc1cc(F)ccc1F
159 | CC(C)(C)CC(C)(C)Nc1nc(N2CCOCC2)nc(N2CCOCC2)n1
165 | NC(=O)c1ccnc(I)c1
83 | COc1ccc(F)c(C#N)c1

melting point [°C] | SMILES
-8 | C1=Cc2ccccc2CC1
32 | Fc1ccc(I)cn1
220 | CCN1CCN(c2cc3c(cc2F)c(=O)c(C(=O)O)cn3C2CC2)CC1
-63.5 | CCCCCCC(=O)OCCC
58 | CC1C(c2ccccc2)=Cc2ccccc21 (stereo not drawn)
167 | Cc1cccc(C)c1NC(=O)C1C2C=CC(C2)C1C(=O)O (stereo not drawn)
4.5 | NCCCOCCCCOCCCN
81 | COc1cc(C(C)=O)cc(OC)c1OC
112 | O=C(O)CCc1cccc(O)c1
95.5 | O=C(O)CCc1ccccc1Cl
33.6 | CCCCCCCCCCCCCCCCC1CCCCC1
45 | C=C1C(=O)C2(C)CCC1C2(C)C (stereo not drawn)
166 | Cc1ccc(C(N)=O)cc1[N+](=O)[O-]
158 to 159 | Cn1cnnc1-c1cccc(N)c1
57 to 57.5 | OC(c1ccc(Br)cc1)C1CC1 (stereo not drawn)
153 to 156 | Cn1c(S)nnc1-c1cccs1
228 to 233 | O=C(O)C1CCCN1 (stereo not drawn)
70 to 71 | Nc1ccccc1CN1CCOCC1
201 to 204 | CN(C)c1ccc(C2CC(=O)CC(=O)C2)cc1
169 | O=[N+]([O-])c1ccccc1OCCOc1ccccc1[N+](=O)[O-]
66 | CC(C)(C)C1CCC(O)CC1 (stereo not drawn)
97 | CCCC(=O)Nc1ccccc1
126 | Cc1ccccc1N=Nc1c(N)ccc2ccccc12

melting point [°C] | SMILES
87 | CC1=Cc2ccccc2C1O (stereo not drawn)
73 | COc1cc(CCl)ccc1OCc1ccccc1
-20 | FC1(F)C(F)(F)C(F)(F)C2(F)C(F)(C1(F)F)C(F)(F)C(F)(F)C1(F)C(F)(F)C(F)(F)C(F)(F)C(F)(F)C12F (stereo not drawn)
199 | CC(=NNC(=O)c1ccncc1)c1ccco1
43 | CC1CCC(=O)N1 (stereo not drawn)
145 | COc1ccc(OC)c(/C=N/n2c(S)nnc2C(F)(F)F)c1
4.7 | c1ccc(N2CCCCC2)cc1
96 | O=Cc1cccc2ncccc12
181 | CC(=O)Nc1c(Cl)cccc1Cl
158 | CS(=O)(=O)c1nc(Br)c(C#N)c(-c2ccc(Cl)cc2)c1Cl
-113 | CCOC
224 | CC(=O)N(CC(C)C(=O)O)c1c(I)cc(I)c(N)c1I (stereo not drawn)
61 to 62 | Cc1ccc(S(=O)(=O)OCCc2coc3ccccc23)cc1
81 | O=C(O)CCCCCCC(=O)c1ccccc1
86.5 to 87.5 | COC(=O)CCC(C)C1CCC2C3C=CC4CC(OC(C)=O)CCC4(C)C3CC(OC(C)=O)C12C (stereo not drawn)
242 to 244 | CSc1nc2nc(C)cc(C)c2c(=O)[nH]1
62 to 63 | COC(=O)CS(C)(=O)=O
96 | Clc1ccc2nc(Cl)sc2c1
119 | O=C(C(=S)Nc1ccccc1Cl)c1ccccc1

SMILES | melting point [°C]
Nc1c([N+](=O)[O-])cccc1[N+](=O)[O-] | 142
ClC(Cl)(Br)CBr | -26
CCC1(c2ccccc2)C(=O)N(COC)C(=O)N(COC)C1=O | 117
COc1ccc(CC2NCC(O)C2OC(C)=O)cc1 (stereo not drawn) | 141
ClC=CCCl (mixture of isomers) | -50
FC(F)OCC(F)(F)C(F)(F)F | -107
COc1ccc2[nH]cc(CCN)c2c1 | 122
O=[N+]([O-])c1ccc(C(Cl)C(Cl)c2ccc(C(Cl)C(Cl)c3ccc([N+](=O)[O-])cc3[N+](=O)[O-])cc2)c([N+](=O)[O-])c1 (stereo not drawn) | 92 to 99
Cc1cc(C(C)(C)C)ccc1O | 27.5
CCO[P@](=O)(c1ccc(OC)cc1)N1Cc2ccccc2C[C@@H]1C(=O)NO | 167
CCOP(=S)(OCC)ON=C(C#N)c1ccccc1 | 6.1
CC(=O)Nc1ccc(Cl)cc1C | 136 to 138
O=C(Nc1ccc(F)cc1F)c1cccnc1Oc1cccc(C(F)(F)F)c1 | 160
O=C(O)COc1cc(Cl)c(Cl)cc1Cl | 156
CN1CCN(c2ccc(CO)cc2)CC1 | 118 to 119
CC(=O)NCO | 55 to 56
OCC1OC(Oc2c[nH]c3ccc(Br)c(Cl)c23)C(O)C(O)C1O (stereo not drawn) | 249 to 251
